Measurements reported in patent US20080004290A1, “Anti-Cancer Agents” (THE UNIVERSITY OF QUEENSLAND, priority 2003, published 2008).
Where two headings read alike, the source gives them in different places.

Legend:
[1] = system: NFF, neonatal foreskin fibroblasts; assay: Cell survival assay (clonogenic survival, SRB), normal cells; assay type: cell-based, human; conditions: 24 hours with compound, further growth, SRB
Method: (§1) The cytotoxicities of the compounds of the invention were determined by clonogenic survival of human cancer cells (MM96L, melanoma) and human normal cells (NFF, neonatal foreskin fibroblasts). Cells were incubated with the compounds at various concentrations of compound (0.01-10 μg/mL) for 24 hours, washed, and then grown for a further four days in the absence of hydroxamic acid before determining cell survival by cell count. The final readout involved staining with sulforhodamine B (SRB), a cost-effective method amenable to automation and high throughput analysis. At the technical level, “cell sensitivity” is often inferred from short term (1-2 day) observations such as apoptosis, which may not be a satisfactory model of clonogenic survival.
(§2) Cell Lines and Culture Medium. All cell lines used in this study have been described previously (Parsons et al., 1986; Todaro et al., 1980; Glenn et al., 2004). All cell lines were cultured in 10% heat-inactivated foetal calf serum (CSL, Australia) in RPMI 1640 medium supplemented with 100 U/mL penicillin, 100 μg/mL streptomycin, and 3 mM HEPES at 5% CO2, 99% humidity at 37° C. Primary human fibroblasts were obtained from neonatal foreskins and cultured in the above medium. Routine mycoplasma tests were performed using Hoechst stain^i and were always negative.
(§3) Cell Survival Assay. Cells were plated into 96-well microtitre plates at 5×10^3 cells/well, and allowed to adhere overnight. Test compounds were added to culture medium at the indicated concentrations, and plates incubated in the above conditions for 24 hours. Following this incubation period, compounds and media were removed, and replaced with fresh culture medium. Cells were then grown for a further 72 hours before assay using sulforhodamine B (SRB; Sigma, St. Louis, Mo.) as previously described. Briefly, the culture medium was removed from the 96-well microtitre plates and the plates washed twice with phosphate buffered saline (PBS), before the cells were fixed with methylated spirits for 15 minutes. The plates were then rinsed with tap water and the fixed cells stained with 50 μL/well of SRB solution (0.4% sulforhodamine B (w/v) in 1% (v/v) acetic acid) over a period of 1 hour. The SRB solution was then removed from the wells and the plates rapidly washed two times with 1% (v/v) acetic acid. Protein bound dye was then solubilised with the addition of 100 μL of 10 mM unbuffered Tris, and incubated for 15 min at 25° C. Plates were then read at 564 nm on a VERSA max tunable microplate reader (Molecular Devices, Sunnyvale, Calif.).

MM96L melanoma cells = assay: Cell survival assay (clonogenic survival, SRB); assay type: cell-based, human
Method: as §1, §2, §3

[2] = Table 5, 24 hours with compound, further growth, SRB, read-out: IC50 MM96L
[3] = Table 5, Selectivity Index = IC50 (NFF)/IC50 (MM96L)
[4] = Homo sapiens, Fibroblast, 24 h, Table 6, read-out: IC50 (μM) NFF
[5] = Homo sapiens, MM96L, 24 h, Table 6, 24 hours with compound, further growth, SRB, read-out: IC50 (μM) MM96L
[6] = Table 6, IC50 (NFF)/IC50 (MM96L)
[7] = Table 6, read-out: IC50 (μM) NFF
[8] = Table 6, 24 hours with compound, further growth, SRB, read-out: IC50 (μM) MM96L

Compound	IC50 [1, 4]	IC50 (MM96L melanoma cells; [5])	Selectivity (MM96L melanoma cells; [6])	other results
O=C(CCCSC[C@H](NC(=O)C1CCC(=O)N1)C(=O)NCc1ccccc1)NO (stereo partly drawn) [Example 56]				IC50 ([1]; Table 5, read-out: IC50 NFF): 9.6 ± 0.9 µM; IC50 (MM96L melanoma cells; [2]): 4.4 ± 0.3 µM; Selectivity (MM96L melanoma cells; [3]): 2.2
O=C(CCCSC[C@H](NS(=O)(=O)c1ccccc1)C(=O)NCc1ccccc1)NO [Example 58]				IC50 ([1]; Table 5, read-out: IC50 NFF): > 100 µM; IC50 (MM96L melanoma cells; [2]): < 100 µM; Selectivity (MM96L melanoma cells; [3]): >1
CC(=O)c1cccc(NC(=O)[C@H](CSCCCC(=O)NO)NC(=O)c2ccc(N(C)C)cc2)c1 [Example 60]	1.6 ± 0.08 µM	0.55 ± 0.05 µM	2.9	
CN(C)c1ccc(C(=O)N[C@@H](CSCCCC(=O)NO)C(=O)Nc2ccccc2-c2ccccc2)cc1 [Example 62]	4.4 ± 0.6 µM	2.1 ± 0.2 µM	2.1	
COC(=O)c1ccc(NC(=O)[C@H](CSCCCC(=O)NO)NC(=O)c2ccc(N(C)C)cc2)cc1 [Example 63]	2.8 ± 0.1 µM	0.96 ± 0.07 µM		
CN(C)c1ccc(C(=O)N[C@@H](CSCCCC(=O)NO)C(=O)Nc2ccccc2Cc2ccccc2)cc1 [Example 64]	6.8 ± 0.4 µM	3.5 ± 0.2 µM	1.9	
CN(C)c1ccc(C(=O)N[C@@H](CSCCCC(=O)NO)C(=O)Nc2cccc3ccccc23)cc1 [Example 65]	5.9 ± 0.7 µM	1.3 ± 0.1 µM	4.5	
CN(C)c1ccc(C(=O)N[C@@H](CSCCCC(=O)NO)C(=O)Nc2cccc3c2CCCC3)cc1 [Example 66]	2.2 ± 0.3 µM	0.5 ± 0.1 µM	4.4	IC50 (MM96L melanoma cells; Homo sapiens, MM96L, most preferred compounds, exemplary examples, read-out: potency of IC50 against the MM96 melanoma cells): ≤ 0.5 µM
CN(C)c1ccc(C(=O)N[C@@H](CSCCCC(=O)NO)C(=O)Nc2cccc3cccnc23)cc1 [Example 68]	3 ± 0.3 µM	0.61 ± 0.08 µM	5.0	
CN(C)c1ccc(C(=O)N[C@@H](CSCCCC(=O)NO)C(=O)Nc2cccc3scnc23)cc1 [Example 69]	3.3 ± 0.3 µM	1.3 ± 0.1 µM	2.5	
CN(C)c1ccc(C(=O)N[C@@H](CSCCCC(=O)NO)C(=O)Nc2cccc3cc4ccccc4cc23)cc1 [Example 71]	2.2 ± 0.3 µM	1.7 ± 0.3 µM	1.3	
CN(C)c1ccc(C(=O)N[C@@H](CSCCCC(=O)NO)C(=O)Nc2ccc3cc4ccccc4cc3c2)cc1 [Example 72]	1.14 ± 0.06 µM	0.55 ± 0.07 µM	2.1	
CN(C)c1ccc(C(=O)N[C@@H](CSCCCC(=O)NO)C(=O)NCc2ccccc2)cc1 [Example 73]	0.35 ± 0.07 µM	0.14 ± 0.09 µM	2.5	
CN(C)c1ccc(C(=O)N[C@@H](CSCCCC(=O)NO)C(=O)N(Cc2ccccc2)Cc2ccccc2)cc1 [Example 74]	15.3 ± 0.6 µM	2.3 ± 0.2 µM	6.5	
CN(C)c1ccc(C(=O)N[C@@H](CSCCCC(=O)NO)C(=O)NCc2cccc3ccccc23)cc1 [Example 75]	0.42 ± 0.05 µM	0.2 ± 0.02 µM	2.1	
CN(C)c1ccc(C(=O)N[C@@H](CSCCCC(=O)NO)C(=O)N[C@H](c2ccccc2)[C@@H](O)c2ccccc2)cc1 [Example 76]			4.3	IC50 [1, 7]: 9 ± 3 µM; IC50 (MM96L melanoma cells; [8]): 2.1 ± 0.2 µM

Compound	IC50 [1, 4]	IC50 (MM96L melanoma cells; [5])	Selectivity (MM96L melanoma cells; [6])	other results
CN(C)c1ccc(C(=O)N[C@@H](CSCCCC(=O)NO)C(=O)Nc2ccncc2)cc1 [Example 77]	7.2 ± 0.8 µM	1.8 ± 0.2 µM	4.1	
Cc1ccnc(NC(=O)[C@H](CSCCCC(=O)NO)NC(=O)c2ccc(N(C)C)cc2)c1 [Example 79]	11.2 ± 0.7 µM	1.12 ± 0.06 µM	10.0	
CN(C)c1ccc(C(=O)N[C@@H](CSCCCC(=O)NO)C(=O)NCc2ccncc2)cc1 [Example 80]	14 ± 1 µM	2.2 ± 0.3 µM	6.2	
CN(C)c1ccc(C(=O)N[C@@H](CSCCCC(=O)NO)C(=O)NCc2cccnc2)cc1 [Example 81]	8.8 ± 0.5 µM	1.49 ± 0.09 µM	5.9	
CN(C)c1ccc(C(=O)N[C@@H](CSCCCC(=O)NO)C(=O)NCc2ccccn2)cc1 [Example 82]	6.5 ± 0.3 µM	1.2 ± 0.1 µM	5.5	
CN(C)c1ccc(C(=O)N[C@@H](CSCCCC(=O)NO)C(=O)NCCc2ccccc2)cc1 [Example 83]			1.9	IC50 [1, 7]: 2.7 ± 0.3 µM; IC50 (MM96L melanoma cells; [8]): 1.4 ± 0.1 µM
CN(C)c1ccc(C(=O)N[C@@H](CSCCCC(=O)NO)C(=O)NCCc2ccccc2Br)cc1 [Example 84]			4.7	IC50 [1, 7]: 3.3 ± 0.3 µM; IC50 (MM96L melanoma cells; [8]): 0.7 ± 0.2 µM
CN(C)c1ccc(C(=O)N[C@@H](CSCCCC(=O)NO)C(=O)NCCc2cccc(Br)c2)cc1 [Example 85]			3.4	IC50 [1, 7]: 3.1 ± 0.1 µM; IC50 (MM96L melanoma cells; [8]): 0.9 ± 0.1 µM
CN(C)c1ccc(C(=O)N[C@@H](CSCCCC(=O)NO)C(=O)NCCc2ccc(Br)cc2)cc1 [Example 86]			2.6	IC50 [1, 7]: 2.6 ± 0.3 µM; IC50 (MM96L melanoma cells; [8]): 1 ± 0.1 µM
CN(C)c1ccc(C(=O)N[C@@H](CSCCCC(=O)NO)C(=O)NC2(Cc3ccccc3)CCCC2)cc1 [Example 87]			7.0	IC50 [1, 7]: 4.2 ± 0.5 µM; IC50 (MM96L melanoma cells; [8]): 0.6 ± 0.1 µM
CN(C)c1ccc(C(=O)N[C@@H](CSCCCC(=O)NO)C(=O)NCC2CCCCC2)cc1 [Example 88]	3.6 ± 0.2 µM	0.51 ± 0.09 µM	7.1	
CN(C)c1ccc(C(=O)N[C@@H](CSCCCC(=O)NO)C(=O)NC2CCCC2)cc1 [Example 89]	2.6 ± 0.3 µM	1.5 ± 0.1 µM	1.7	
CN(C)c1ccc(C(=O)N[C@@H](CSCCCC(=O)NO)C(=O)NC2CCN(Cc3ccccc3)CC2)cc1 [Example 90]	1.28 ± 0.08 µM	1.5 ± 0.2 µM	0.9	
CN(C)c1ccc(C(=O)N[C@@H](CSCCCC(=O)NO)C(=O)N2CCCCC2)cc1 [Example 91]	20 ± 2 µM	4.9 ± 0.3 µM	4.2	
CN(C)c1ccc(C(=O)N[C@@H](CSCCCC(=O)NO)C(=O)NC23CC4CC(CC(C4)C2)C3)cc1 [Example 92]	7.1 ± 0.5 µM	1.48 ± 0.08 µM	4.8	
CN(C)c1ccc(C(=O)NC(CSCCCC(=O)NO)C(=O)NC(C)(C)C)cc1 (stereo not drawn) [Example 96]			5.0	IC50 [1, 7]: 3.5 ± 0.5 µM; IC50 (MM96L melanoma cells; [8]): 0.7 ± 0.2 µM
